Like-named read-outs stand apart in the source and are kept apart here.
Legend:
MSTO-211H cells = test: Tumor cell proliferation inhibition experiment (Cell Titer Glo), MSTO-211H; type: cell-based; settings: MSTO-211H lung cancer cells, three days incubation
Procedure: (§1) Cell Titer Glo luminescent cell viability assay kit was used to quantify the ATP content in cells, so as to quantify the number of viable cells. […] On the second day, the compound was added to the 96-well plate after a three-fold serial dilution to eight concentrations, and incubated at 37° C. for three days in the 5% carbon dioxide incubator. The culture medium was treated with the addition of Cell Titer Glo luminescent cell viability assay kit (Promega G7570) reagent, incubated for 10 minutes, and then placed in Envision (Pelkin Elmer) to read the luminescence signal. DMSO was used instead of the compound as a control to calculate the inhibition rate (inhibition rate %=(1−compound signal/DMSO signal)*100), and then standard four parameter curve fitting was used to calculate the inhibitory activity IC50.

NCI-H2052 cells = test: Tumor cell proliferation inhibition experiment (Cell Titer Glo), NCI-H2052; type: cell-based; settings: NCI-H2052 lung cancer cells, three days incubation
Procedure: as §1

[1] = Pharmacokinetic evaluation experiment in mice (IV and PO); type: in vivo; settings: mouse, plasma, male ICR mice; for bioavailability: PO 30 mg/kg vs IV 5 mg/kg; for AUC: read-out: AUC; for Vd: read-out: Vss; for Cmax: read-out: Cmax; for Tmax: read-out: Tmax
Procedure: 120 healthy adult male ICR mice were selected and divided into 20 groups according to the principle of similar body weight, with 6 mice in each group of IV (10 groups) and 6 mice in each group of PO (10 groups). An appropriate amount of sample was weighed, sequentially added with an appropriate amount of DMA, Solutol, and Saline according to the volume ratio of 10:10:80, and stirred and sonicated to achieve a clarification of 1 mg/mL. After overnight fasting, mice in the IV group were intravenously administered with a volume of 5 mL/kg and a dose of 5 mg/kg, respectively; and mice in the PO group were intragastrically administered with a volume of 30 mL/kg and a dose of 30 mg/kg, respectively. Interleaved sampling was performed on every 6 mice after administration of the test compound. In the IV group, approximately 30 μL of blood was collected at 0.0833, 0.25, 0.5, 1, 2, 4, 6, 8, and 24 hours, and placed in a commercial anticoagulant tube pre-filled with EDTA-K2. In the PO group, approximately 30 μL of blood was collected at 0.25, 0.5, 1, 2, 4, 6, 8, and 24 hours, and placed in the commercial anticoagulant tube pre-filled with EDTA-K2. The tubes were centrifuged for 15 minutes to separate the plasma, and the plasma was stored at −80° C. Animals were allowed to eat 2 hours after administration. The content of the test compound in the plasma of mice after intravenous and intragastric administration was determined by LC/MS/MS method. The linear range of the method was 1.00 to 1000 ng/mL: plasma samples were analyzed after protein precipitation.

Compound | IC50 (MSTO-211H cells; Homo sapiens, 72 h) | IC50 (NCI-H2052 cells; Homo sapiens, 72 h) | other results
CNC(=O)c1cc2c(c(F)c1-c1c(Cl)c(F)cc3c1C[C@](c1ccccc1)([C@@H]1CCCN1)O3)CCC2F (some centres unmarked) [Compound 43a] | 0.44 µM | 0.5 µM | –
CNC(=O)c1cc2c(c(F)c1-c1c(Cl)c(F)cc3c1[C@H](C)[C@@](CN[C@H]1CC[C@](C)(O)CC1)(c1ccccc1)O3)OC1CC21 (some centres unmarked) [Compound 26a] | 0.03 µM | 0.04 µM | –
CNC(=O)c1cc2c(c(F)c1-c1c(Cl)c(F)cc3c1C[C@@](CN[C@H]1CC[C@](C)(O)CC1)(c1ccccc1)O3)CC(O)C2 (some centres unmarked) [Compound 80a] | 0.49 µM | 0.58 µM | –
CNC(=O)c1cc2c(c(F)c1-c1c(Cl)c(F)cc3c1C[C@](c1ccccc1)([C@@H]1CCCN1)O3)CC(=O)C2 [Compound 65a] | > 10 µM | > 10 µM | –
CNC(=O)c1cc2c(c(F)c1-c1c(Cl)c(F)cc3c1C[C@](c1ccccc1)([C@@H]1CC4(CC4)CN1)O3)N1CCCC1CO2 (some centres unmarked) [Compound 15a] | 2.88 µM | 2.73 µM | –
CNC(=O)c1cnc(OCCO)c(F)c1-c1c(Cl)c(F)cc2c1C[C@](c1ccccc1)(c1ccn[nH]1)O2 [Compound 11a] | > 10 µM | > 10 µM | –
CNC(=O)c1cc2c(c(F)c1-c1c(Cl)c(F)cc3c1C[C@](c1ccccc1)([C@@H]1CCC(=O)N1)O3)C1CC1O2 (some centres unmarked) [Compound 20a] | > 10 µM | > 10 µM | –
CNC(=O)c1cc2c(c(F)c1-c1c(Cl)c(F)cc3c1C[C@](c1ccccc1)([C@@H]1CC4(CC4)CN1)O3)C1CC1O2 (some centres unmarked) [Compound 16a] | 1.73 µM | 1.85 µM | bioavailability [1]: 40.3%; clearance ([1]; IV 5 mg/kg): 3.38 L/h/kg; half-life ([1]; IV 5 mg/kg): 2.28 h; AUC ([1]; IV 5 mg/kg): 1.48 µg·h/mL; Vd ([1]; IV 5 mg/kg): 11.4 L/kg; AUC ([1]; PO 30 mg/kg): 3.57 µg·h/mL; Cmax ([1]; PO 30 mg/kg): 0.434 µg/mL; Tmax ([1]; PO 30 mg/kg): 2 h
CNC(=O)c1cc2c(c(F)c1-c1c(Cl)c(F)cc3c1C[C@](c1ccccc1)([C@@H]1CC4(CC4)CN1)O3)OC1CC21 (some centres unmarked) [Compound 18a] | 0.69 µM | 0.73 µM | bioavailability [1]: 27.9%; clearance ([1]; IV 5 mg/kg): 6.42 L/h/kg; half-life ([1]; IV 5 mg/kg): 1.59 h; AUC ([1]; IV 5 mg/kg): 0.804 µg·h/mL; Vd ([1]; IV 5 mg/kg): 12.2 L/kg; AUC ([1]; PO 30 mg/kg): 1.68 µg·h/mL; Cmax ([1]; PO 30 mg/kg): 0.199 µg/mL; Tmax ([1]; PO 30 mg/kg): 0.8 h
CNC(=O)c1cc2c(c(F)c1-c1c(Cl)c(F)cc3c1C[C@](c1ccccc1)([C@@H]1CCCN1)O3)N1C[C@@H](F)CC1CO2 (some centres unmarked) [Compound 5a] | 1.94 µM | 3.14 µM | –
CNC(=O)c1cc2c(c(F)c1-c1c(Cl)c(F)cc3c1C[C@](c1ccccc1)([C@@H]1CCCN1)O3)CC1(CC1)C2 [Compound 1a] | 2.19 µM | 4.75 µM | –
CNC(=O)c1cnc(OCCO)c(N)c1-c1c(Cl)c(F)cc2c1C[C@](c1ccccc1)([C@@H]1CCCN1)O2 [Compound 8a] | > 10 µM | > 10 µM | –
CNC(=O)c1cnc(OCCO)c(OC)c1-c1c(Cl)c(F)cc2c1C[C@](c1ccccc1)([C@@H]1CCCN1)O2 [Compound 7a] | 9.8 µM | 9.08 µM | –
CNC(=O)c1cc2c(c(F)c1-c1c(Cl)c(F)cc3c1[C@H](C)[C@@](CN[C@H]1CC[C@](C)(O)CC1)(c1ccccc1)O3)C1CC1O2 (some centres unmarked) [Compound 25a] | 0.15 µM | 0.26 µM | –
CNC(=O)c1cc2c(c(F)c1-c1c(Cl)c(F)cc3c1C[C@@](CN[C@H]1CC[C@](C)(O)CC1)(c1ccccc1)O3)CCC2 [Compound 30a] | 0.3 µM | 0.55 µM | –
CNC(=O)c1cc2c(c(F)c1-c1c(Cl)c(F)cc3c1C[C@@](CN[C@H]1CC[C@](C)(O)CC1)(c1ccccc1)O3)[C@@H]1C[C@@H]1O2 (single isomer, unassigned) [Compound 14a2] | 0.39 µM | 0.59 µM | –
C[C@H]1c2c(cc(F)c(Cl)c2-c2c(C(N)=O)cc3c(c2F)C2CC2O3)O[C@]1(CN[C@H]1CC[C@](C)(O)CC1)c1ccccc1 (some centres unmarked) [Compound 27a] | 0.1 µM | 0.21 µM | –
NC(=O)c1cc2c(c(F)c1-c1c(Cl)c(F)cc3c1C[C@](c1ccccc1)([C@@H]1CCCN1)O3)CCC2 [Compound 52a] | 0.17 µM | 0.2 µM | –
CNC(=O)c1cnc(OCCO)c(F)c1-c1c(Cl)c(F)cc2c1C[C@](c1ccccc1)([C@@H]1CCC(=O)N1)O2 [Compound 19a] | > 10 µM | > 10 µM | –

Compound | IC50 (MSTO-211H cells; Homo sapiens, 72 h) | IC50 (NCI-H2052 cells; Homo sapiens, 72 h) | other results
CNC(=O)c1cnc(OCCO)c(F)c1-c1c(Cl)c(F)cc2c1C[C@](c1ccccc1)([C@@H]1CC3(CC3)CN1)O2 [Compound 10a] | 0.236 µM | 0.328 µM | bioavailability [1]: 17.3%; clearance ([1]; IV 5 mg/kg): 3.02 L/h/kg; half-life ([1]; IV 5 mg/kg): 1.11 h; AUC ([1]; IV 5 mg/kg): 1.65 µg·h/mL; Vd ([1]; IV 5 mg/kg): 2.42 L/kg; AUC ([1]; PO 30 mg/kg): 1.71 µg·h/mL; Cmax ([1]; PO 30 mg/kg): 0.603 µg/mL; Tmax ([1]; PO 30 mg/kg): 0.5 h
CNC(=O)c1cc2c(c(F)c1-c1c(Cl)c(F)cc3c1C[C@](c1ccccc1)([C@@H]1CCCN1)O3)CCC2=O [Compound 40a] | 0.49 µM | 0.6 µM | –
CNC(=O)c1cc2c(c(F)c1-c1c(Cl)c(F)cc3c1C[C@](c1ccccc1)([C@@H]1CCCN1)O3)CCC2S(C)(=O)=O (some centres unmarked) [Compound 46a] | 0.64 µM | 0.93 µM | –
CNC(=O)c1cc2c(c(F)c1-c1c(Cl)c(F)cc3c1C[C@](c1ccccc1)([C@@H]1CCCN1)O3)CCC2(F)F [Compound 36a] | 0.45 µM | 0.65 µM | –
CNC(=O)c1cc2c(c(F)c1-c1c(Cl)c(F)cc3c1C[C@](c1ccccc1)([C@@H]1CCCN1)O3)CC(O)C2 (some centres unmarked) [Compound 49a] | 0.15 µM | 0.24 µM | –
CNC(=O)c1cc2c(c(F)c1-c1c(Cl)c(F)cc3c1C[C@@](CN[C@H]1CC[C@](C)(O)CC1)(c1ccccc1)O3)[C@H]1C[C@H]1O2 [Compound 14a1] | 0.22 µM | 0.29 µM | –
C[C@]1(O)CC[C@H](NC[C@@]2(c3ccccc3)Cc3c(cc(F)c(Cl)c3-c3c(C(N)=O)cc4c(c3F)C3CC3O4)O2)CC1 (some centres unmarked) [Compound 23a] | 0.11 µM | 0.2 µM | –
CNC(=O)c1cc2c(c(F)c1-c1c(Cl)c(F)cc3c1C[C@](c1ccccc1)([C@@H]1CCCN1)O3)N1C[C@H](O)CC1CO2 (some centres unmarked) [Compound 4a] | > 10 µM | 8.37 µM | –
C[C@]1(O)CC[C@H](NC[C@@]2(c3ccccc3)Cc3c(cc(F)c(Cl)c3-c3c(C(N)=O)cc4c(c3F)OC3CC43)O2)CC1 (some centres unmarked) [Compound 24a] | 0.02 µM | 0.04 µM | –
CNC(=O)c1cnc(OCCO)c(F)c1-c1c(C#N)c(F)cc2c1C[C@](c1ccccc1)([C@@H]1CCCN1)O2 [Compound 12a] | > 10 µM | > 10 µM | –
C#Cc1c(OCCO)ncc(C(=O)NC)c1-c1c(Cl)c(F)cc2c1C[C@](c1ccccc1)([C@@H]1CCCN1)O2 [Compound 9a] | > 10 µM | 7.97 µM | –
CNC(=O)c1cc2c(c(F)c1-c1c(Cl)c(F)cc3c1C[C@](c1ccccc1)([C@@H]1CCCN1)O3)C[C@H](O)[C@H]2C [Compound 57a1] | – | – | IC50 (MSTO-211H cells): 0.39 µM; IC50 (NCI-H2052 cells): 0.45 µM
CNC(=O)c1cc2c(c(F)c1-c1c(Cl)c(F)cc3c1C[C@@](CN[C@H]1CC[C@](C)(O)CC1)(c1ccccc1)O3)CCC2O (some centres unmarked) [Compound 42a] | 0.73 µM | 0.9 µM | –
C[C@H]1c2c(cc(F)c(Cl)c2-c2c(C(N)=O)cc3c(c2F)OC2CC32)O[C@]1(CN[C@H]1CC[C@](C)(O)CC1)c1ccccc1 (some centres unmarked) [Compound 28a] | 0.04 µM | 0.05 µM | –
CNC(=O)c1cc2c(c(F)c1-c1c(Cl)c(F)cc3c1C[C@](c1ccccc1)([C@@H]1CCCN1)O3)CCC2C#N (some centres unmarked) [Compound 38a] | 0.99 µM | 0.75 µM | –
CNC(=O)c1cc2c(c(F)c1-c1c(Cl)c(F)cc3c1C[C@](c1ccccc1)([C@@H]1CCCN1)O3)N1CCCC1CO2 (some centres unmarked) [Compound 3a] | 0.976 µM | 1.87 µM | –
CNC(=O)c1cnc(OCCO)c(O)c1-c1c(Cl)c(F)cc2c1C[C@](c1ccccc1)([C@@H]1CCCN1)O2 [Compound 6a] | > 10 µM | > 10 µM | –
CNC(=O)c1cc2c(c(F)c1-c1c(Cl)c(F)cc3c1C[C@@](CN[C@H]1CC[C@](C)(O)CC1)(c1ccccc1)O3)OC1CC21 (some centres unmarked) [Compound 22a] | 0.05 µM | 0.09 µM | –

— patent US20240368134A1, “AROMATIC COMPOUND, PHARMACEUTICAL COMPOSITION, AND APPLICATION THEREOF” (SHANGHAI KYGENT PHARMACEUTICAL CO., LTD, priority 2021, published 2024)
